Experimental data from patent US12180207B2 (ARRAY BIOPHARMA INC., priority 2018, dated 2024).

What follows are compounds tested against HEK-293 cells transfected with dox-inducible human wild type FGFR3 (Homo sapiens (Human), UniProt P22607) (assay: FGFR3 pFGFR cell assay (ELISA)). Conditions: HEK-293 dox-inducible FGFR3, 1 hour compound, 100 ng/ml FGF-acidic.
Type: cell-based
Experimental: FGFR3 pFGFR Cell Assay: • HEK-293 cells transfected with dox-inducible human wild type FGFR3 (SEQ ID NO: 5) were plated in a collagen or poly-D-lysine coated 96 well flat bottom plates at 4×10^5 cells/well in complete DMEM medium containing 10% FBS and 1 μg/ml doxycycline and allowed to attach for 24 h at 37° C., 5% CO2. Cells were treated with compound using 1:3 serial dilutions with a top final concentration of 5 μM. Compound was incubated on cells for 1 hour at 37° C., 5% CO2. Cells were then stimulated with a final concentration of 100 ng/ml human FGF-acidic for 5 minutes at 37° C., 5% CO2. Medium was removed and cells were lysed with lysis buffer containing phosphatase and protease inhibitors. Phospho FGFR3 was measured by ELISA (R&D Systems cat DYC2719). The ELISA captures total FGFR3 and detects total phospho tyrosine. Optical density was measured for each well using a Versamax reader at a wavelength of 450 nm. 100 POC was determined using no test compounds and 0 POC was determined using a control compound. The POC values were fit to a 4-parameter logistic curve as a function of the concentration of the compound, and the IC50 value is the point where the curve crosses 50 POC.

Chain of HEK-293 cells transfected with dox-inducible human wild type FGFR3 (P22607 23-806): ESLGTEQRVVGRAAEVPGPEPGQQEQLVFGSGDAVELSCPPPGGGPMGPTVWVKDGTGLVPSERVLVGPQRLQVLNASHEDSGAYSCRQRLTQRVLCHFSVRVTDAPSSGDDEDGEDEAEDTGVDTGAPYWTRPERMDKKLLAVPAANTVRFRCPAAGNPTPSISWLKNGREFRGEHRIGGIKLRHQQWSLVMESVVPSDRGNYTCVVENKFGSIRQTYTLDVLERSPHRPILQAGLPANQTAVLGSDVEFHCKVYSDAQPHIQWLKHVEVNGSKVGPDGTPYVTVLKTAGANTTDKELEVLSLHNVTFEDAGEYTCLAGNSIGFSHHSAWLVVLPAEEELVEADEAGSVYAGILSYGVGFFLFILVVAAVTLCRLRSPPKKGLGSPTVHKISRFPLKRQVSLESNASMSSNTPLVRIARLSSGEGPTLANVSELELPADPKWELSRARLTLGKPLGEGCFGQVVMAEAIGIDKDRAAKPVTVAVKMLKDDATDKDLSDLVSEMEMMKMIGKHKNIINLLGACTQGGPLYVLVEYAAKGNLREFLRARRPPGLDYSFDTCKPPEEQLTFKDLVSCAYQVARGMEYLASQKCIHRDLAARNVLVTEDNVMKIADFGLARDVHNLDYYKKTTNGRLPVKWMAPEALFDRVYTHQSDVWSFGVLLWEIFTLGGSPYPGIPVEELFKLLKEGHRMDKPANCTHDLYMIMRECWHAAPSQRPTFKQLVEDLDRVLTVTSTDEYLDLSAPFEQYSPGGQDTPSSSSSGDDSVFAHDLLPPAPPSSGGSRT

SMILES	IC50
C=CC(=O)N1CC2(CCN(C(=O)N3CCC(n4cc(-c5cc(OC)c6c(C#N)cnn6c5)cn4)CC3)CC2)C1 [Example 6, 6-(1-(1-(2-acryloyl-2,7-diazaspiro[3.5]nonane-7-carbonyl)piperidin-4-yl)-1H-pyrazol-4-yl)-4-methoxypyrazolo[1,5-a]pyridine-3-carbonitrile]	72 nM
C=CC(=O)N1C[C@H]2CN(C(=O)N3CCC(n4cc(-c5cc(OC)c6c(C#N)cnn6c5)cn4)CC3)C[C@H]21 [Example 7, 6-(1-(1-((1S,5S)-6-acryloyl-3,6-diazabicyclo[3.2.0]heptane-3-carbonyl)piperidin-4-yl)-1H-pyrazol-4-yl)-4-methoxypyrazolo[1,5-a]pyridine-3-carbonitrile]	110 nM
C=CC(=O)N1CC2(CCN(C(=O)N3CCC(n4cc(-c5cc(OC)c6c(C#N)cnn6c5)cn4)CC3)C2)C1 [Example 8, 6-(1-(1-(2-acryloyl-2,6-diazaspiro[3.4]octane-6-carbonyl)piperidin-4-yl)-1H-pyrazol-4-yl)-4-methoxypyrazolo[1,5-a]pyridine-3-carbonitrile]	149 nM
C=CC(=O)N1CCC(F)(C(=O)N2CCC(n3cc(-c4cc(OC)c5c(C#N)cnn5c4)cn3)CC2)CC1 [Example 13, 6-(1-(1-(1-acryloyl-4-fluoropiperidine-4-carbonyl)piperidin-4-yl)-1H-pyrazol-4-yl)-4-methoxypyrazolo[1,5-a]pyridine-3-carbonitrile]	39 nM
C=CC(=O)N1CC(C(=O)N2CCC(n3cnc(-c4cc(OC)c5c(C#N)cnn5c4)c3)CC2)C1 [Example 98, 6-(1-(1-(1-acryloylazetidine-3-carbonyl)piperidin-4-yl)-1H-imidazol-4-yl)-4-methoxypyrazolo[1,5-a]pyridine-3-carbonitrile]	1130 nM
C=CC(=O)N1CC(C(=O)N2CCN(c3ccc(-c4cc(OC)c5c(C#N)cnn5c4)cc3)CC2)C1 [Example 100, 6-(4-(4-(1-acryloylazetidine-3-carbonyl)piperazin-1-yl)phenyl)-4-methoxypyrazolo[1,5-a]pyridine-3-carbonitrile]	21 nM
C=CC(=O)N1CC(C(=O)N2CCC(c3ccc(-c4cc(OC)c5c(C#N)cnn5c4)cc3)CC2)C1 [Example 101, 6-(4-(1-(1-acryloylazetidine-3-carbonyl)piperidin-4-yl)phenyl)-4-methoxypyrazolo[1,5-a]pyridine-3-carbonitrile]	69 nM
C=CC(=O)N1CC(F)(C(=O)N2CCC(n3cc(-c4cc(OC)c5c(Cl)cnn5c4)cn3)CC2)C1 [Example 121, 1-(3-(4-(4-(3-chloro-4-methoxypyrazolo[1,5-a]pyridin-6-yl)-1H-pyrazol-1-yl)piperidine-1-carbonyl)-3-fluoroazetidin-1-yl)prop-2-en-1-one]	31 nM
C=CC(=O)N1CC(C(=O)N2CCC(n3cc(-c4cc(OC)c5c(Cl)cnn5c4)cn3)CC2)C1 [Example 122, 1-(3-(4-(4-(3-chloro-4-methoxypyrazolo[1,5-a]pyridin-6-yl)-1H-pyrazol-1-yl)piperidine-1-carbonyl)azetidin-1-yl)prop-2-en-1-one]	71 nM
C=CC(=O)N1CC(C)(C(=O)N2CCC(n3cc(-c4cc(OC)c5c(Cl)cnn5c4)cn3)CC2)C1 [Example 123, 1-(3-(4-(4-(3-chloro-4-methoxypyrazolo[1,5-a]pyridin-6-yl)-1H-pyrazol-1-yl)piperidine-1-carbonyl)-3-methylazetidin-1-yl)prop-2-en-1-one]	57 nM
C=CC(=O)N1CC(OC)(C(=O)N2CCC(n3cc(-c4cc(OC)c5c(Cl)cnn5c4)cn3)CC2)C1 [Example 124, 1-(3-(4-(4-(3-chloro-4-methoxypyrazolo[1,5-a]pyridin-6-yl)-1H-pyrazol-1-yl)piperidine-1-carbonyl)-3-methoxyazetidin-1-yl)prop-2-en-1-one]	24 nM
C=CC(=O)N1CC(C(=O)N2CCC(n3cc(-c4cc(OC5CCC5)c5c(C#N)cnn5c4)cn3)CC2)C1 [Example 125, 6-(1-(1-(1-acryloylazetidine-3-carbonyl)piperidin-4-yl)-1H-pyrazol-4-yl)-4-cyclobutoxypyrazolo[1,5-a]pyridine-3-carbonitrile]	9 nM
C=CC(=O)N1CC(C(=O)N2CCC(n3cc(-c4cc(OCC)c5c(C#N)cnn5c4)cn3)CC2)C1 [Example 126, 6-(1-(1-(1-acryloylazetidine-3-carbonyl)piperidin-4-yl)-1H-pyrazol-4-yl)-4-ethoxypyrazolo[1,5-a]pyridine-3-carbonitrile]	20 nM
C=CC(=O)N1CC(C(=O)N2CCC(n3cc(-c4cc(OC(C)C)c5c(C#N)cnn5c4)cn3)CC2)C1 [Example 127, 6-(1-(1-(1-acryloylazetidine-3-carbonyl)piperidin-4-yl)-1H-pyrazol-4-yl)-4-isopropoxypyrazolo[1,5-a]pyridine-3-carbonitrile]	18 nM
C=CC(=O)N1CC(C(=O)N2CCC(n3cc(-c4cc(OCC(C)C)c5c(C#N)cnn5c4)cn3)CC2)C1 [Example 128, 6-(1-(1-(1-acryloylazetidine-3-carbonyl)piperidin-4-yl)-1H-pyrazol-4-yl)-4-isobutoxypyrazolo[1,5-a]pyridine-3-carbonitrile]	28 nM
C=CC(=O)N1CC(C(=O)N2CCC(n3cc(-c4cc(C(C)C)c5c(C#N)cnn5c4)cn3)CC2)C1 [Example 129, 6-(1-(1-(1-acryloylazetidine-3-carbonyl)piperidin-4-yl)-1H-pyrazol-4-yl)-4-isopropylpyrazolo[1,5-a]pyridine-3-carbonitrile]	23 nM
C=CC(=O)N1CC(C(=O)N2CCC(n3cc(-c4cc(-c5ccc(NC(=O)C6CC6)cc5F)c5c(C#N)cnn5c4)cn3)CC2)C1 [Example 130, N-(4-(6-(1-(1-(1-acryloylazetidine-3-carbonyl)piperidin-4-yl)-1H-pyrazol-4-yl)-3-cyanopyrazolo[1,5-a]pyridin-4-yl)-3-fluorophenyl)cyclopropane-carboxamide]	295 nM
C=CC(=O)N1CC(C(=O)N2CCC(n3cc(-c4cc(-c5ccccc5F)c5c(C#N)cnn5c4)cn3)CC2)C1 [Example 131, 6-(1-(1-(1-acryloylazetidine-3-carbonyl)piperidin-4-yl)-1H-pyrazol-4-yl)-4-(2-fluorophenyl)pyrazolo[1,5-a]pyridine-3-carbonitrile]	15 nM
C=CC(=O)N1CC(CN2CCC(n3cc(-c4cc(OC)c5c(C#N)cnn5c4)cn3)CC2)C1 [Example 132, 6-(1-(1-((1-acryloylazetidin-3-yl)methyl)piperidin-4-yl)-1H-pyrazol-4-yl)-4-methoxypyrazolo[1,5-a]pyridine-3-carbonitrile]	31 nM
C=CC(=O)N1CC(S(=O)(=O)N2CCC(n3cc(-c4cc(OC)c5c(C#N)cnn5c4)cn3)CC2)C1 [Example 134, 6-(1-(1-((1-acryloylazetidin-3-yl)sulfonyl)piperidin-4-yl)-1H-pyrazol-4-yl)-4-methoxypyrazolo[1,5-a]pyridine-3-carbonitrile]	12 nM
C#CC(=O)N1CC(C(=O)N2CCC(n3cc(-c4cc(OC)c5c(C#N)cnn5c4)cn3)CC2)C1 [Example 138, 4-methoxy-6-(1-(1-(1-propioloylazetidine-3-carbonyl)piperidin-4-yl)-1H-pyrazol-4-yl)pyrazolo[1,5-a]pyridine-3-carbonitrile]	17 nM
COc1cc(-c2cnn(C3CCN(C(=O)C4CN(C(=O)/C=C/CN(C)C)C4)CC3)c2)cn2ncc(C#N)c12 [Example 143, (E)-6-(1-(1-(1-(4-(dimethylamino)but-2-enoyl)azetidine-3-carbonyl)piperidin-4-yl)-1H-pyrazol-4-yl)-4-methoxypyrazolo [1,5-a]pyridine-3-carbonitrile]	527 nM
COc1cc(-c2cnn(C3CCN(C(=O)C4CN(C(=O)/C=C/CN5CCCCC5)C4)CC3)c2)cn2ncc(C#N)c12 [Example 145, (E)-4-methoxy-6-(1-(1-(1-(4-(piperidin-1-yl)but-2-enoyl)azetidine-3-carbonyl)piperidin-4-yl)-1H-pyrazol-4-yl)pyrazolo[1,5-a]pyridine-3-carbonitrile]	257 nM
COc1cc(-c2cnn(C3CCN(CC4CN(C(=O)/C=C/CN(C)C)C4)CC3)c2)cn2ncc(C#N)c12 [Example 146, (E)-6-(1-(1-((1-(4-(dimethylamino)but-2-enoyl)azetidin-3-yl)methyl)piperidin-4-yl)-1H-pyrazol-4-yl)-4-methoxypyrazolo [1,5-a]pyridine-3-carbonitrile]	80 nM
COc1cc(-c2cnn(C3CCN(C(=O)C4CN(C(=O)/C=C/CN(C)C)C4)CC3)c2)cn2ncc(Cl)c12 [Example 174]	139 nM
COc1cc(-c2cnn(C3CCN(CC4CN(C(=O)/C=C/CN5CCCCC5)C4)CC3)c2)cn2ncc(C#N)c12 [Example 175, (E)-4-methoxy-6-(1-(1-((1-(4-(piperidin-1-yl)but-2-enoyl)azetidin-3-yl)methyl)piperidin-4-yl)-1H-pyrazol-4-yl)pyrazolo[1,5-a]pyridine-3-carbonitrile]	52 nM
C=CC(=O)N(C)c1ccc(C(=O)N2CCC(n3cc(-c4cc(OC)c5c(C#N)cnn5c4)cn3)CC2)cc1 [Example 178, N-(4-(4-(4-(3-cyano-4-methoxypyrazolo[1,5-a]pyridin-6-yl)-1H-pyrazol-1-yl)piperidine-1-carbonyl)phenyl)-N-methylacrylamide]	44 nM
